Test results as given in patent US7592003B2, “Regulation of toll-like receptors on stem cells” (Oklahoma Medical Research Foundation, priority 2005, dated 2009).

System: LKS^+ cells
Assay: Serum-free, stromal cell-free culture of sorted LKS+ cells, lineage markers by flow cytometry
Assay type: cell-based, mouse
Description: FIGS. 2A-D—Activation of TLRs through MyD88 on LKS^+ cells leads to myeloid cell differentiation. (FIG. 2A) Left, sorted LKS^+ cells (10,000 cells/well) from C57BL/6 or MyD88^−/− mice were cultured in the presence of FL and SCF with medium alone, LPS (10 μg/ml) or Pam3CSK4 (1 μg/ml). After 72 h in culture, cells were analyzed by flow cytometry for expression of lineage markers. Percentages indicate the frequencies of Lin^+ or Lin^− cells. Right, the bar graph depicts yields, i.e., numbers of Lin^+ cell recovered per input progenitor and the data represent mean values with standard deviations from triplicate cultures (*P<0.01). The results are representative of five independent experiments. […] After 72 or 96 h in culture, cells were analyzed by flow cytometry for Mac-1 and F4/80. […] After 72 h in culture, cells were analyzed by flow cytometry for expression of lineage markers. […]
FIG. 11A-B—TLR stimulation causes a progression of Lin^+ cells from LKS^+ cells and soluble CD14 augments the acquisition of Mac-1 and F4/80. […] After 24 or 48 h in culture, cells were analyzed by flow cytometry for expression of lineage markers and percentages of Lin^+ or Lin^− cells are indicated. […] After 24, 48, or 72 h in culture, cells were analyzed by flow cytometry for expression of lineage markers. […] After 72 h in culture, cells were analyzed by flow cytometry for expression of Mac-1 and F4/80. […]

Pam3CSK4
Increase of absolute numbers of Lin+ cells (LKS+ cells with FL and SCF, within 72 h): approximately eight-fold | Increase of Lin+ cells with cells from MyD88-deficient mice (MyD88-deficient LKS+ cells, 72 h): did not occur
